Source: US20240100044A1, “HYDROGEL COMPOSITION AND USES THEREOF IN THE PREVENTION AND/OR TREATMENT OF SKIN DAMAGE CAUSED BY RADIATION” (TARIAN PHARMA, priority 2021, published 2024)
Where two headings read alike, the source gives them in different places. Marks after values point to notes of the source that are not given here.

Experiments:
[1] = test system: radiation dermatitis; details: topical, applied up to 20 minutes before radiotherapy; cited from earlier work
[2] = Protocol: (§1) Saturated solutions were prepared by adding an excess of drug substance to various solvents and storing the samples in sealed containers for 24 hours at room temperature with continuous stirring.
The majority of the samples were stirred using a magnetic stirrer; however, in the case of viscous samples (such as pure glycerine), the samples were stirred using a rotary mixer. The speed of the rotary mixer was adjusted to ensure proper mixing of the sample, this generally involving slower rotation speeds.
(§2) After the equilibration period, samples were centrifuged or filtered and the brimonidine tartrate was quantified using the Thermo Scientific Dionex U3000 UPLC-UV system. The chromatographic conditions are described below: • Column: Sunfire C18 150 mm×4.6 mm, 3.5 μm • Temperature of column: 40° C. • Volume injected: […] • Flow: 0.8 ml/minute • UV detection: 246 nm

[3] = remark: listed apart in the source
Protocol: as §1, §2
Saturated solutions were prepared, incubated and measured as described in Example 1.

[4] = value as per literature (ALPHAGAN Product Monograph), conditions not specified, cited from earlier work
[5] = test system: alpha2-adrenergic receptors; details: cited from earlier work

With `CNC[C@H](O)c1ccc(O)c(O)c1` [epinephrine] as the molecule, how does the “patients showing a significant benefit” value [1] read?
Its value is 50%.

Which results are given for brimonidine tartrate?
Max solubility ([2]; in ARLASOLVE DMI, 24 hours, room temperature): 0.01 % (w/w); Max solubility ([2]; in DMSO, visual solubility, UPLC-UV not performed): >8.5*** % (w/w); Max solubility ([2]; in GLUCAM E10, 24 hours, room temperature): 0.72* % (w/w); Max solubility ([2]; in GLUCAM E20, 24 hours, room temperature): 0.88* % (w/w); Max solubility ([2]; in Glycerine (GLY, 20 ml scintillation flask)): 1.61 % (w/w); Max solubility ([2]; in Hexylene Glycol, 24 hours, room temperature): 0.01 % (w/w); Max solubility ([2]; in Na Pyrrolidone Carboxylate (AJIDEW L50), 24 hours, room temperature): 0.06 % (w/w); Max solubility ([2]; in PEG-400, 24 hours, room temperature): 0.10 % (w/w); Max solubility ([2]; in Propylene Carbonate, 24 hours, room temperature): 0.01** % (w/w); Max solubility ([2]; in Propylene glycol, measured value): 0.56 % (w/w); Max solubility ([2]; in TRANSCUTOL, 24 hours, room temperature): 0.05 % (w/w); Max solubility ([2]; in WATER, measured value): 6.40 % (w/w); active agent solubilised by non-volatile mixture compared to the aqueous mixture ([3]; PG/PEG-400/GLY/PVP (20:10:5:1) vs PG/PEG-400/GLY/PVP/water (20:10:5:1:40)): approximately 22%; saturation in the aqueous solvent phase of the primary formulation ([3]; concentration of 1% brimonidine tartrate): around 30%; saturation in the aqueous solvent phase of the primary formulation ([3]; concentration of 1.5% brimonidine tartrate): ~50%; Max solubility ([3]; in PG/PEG-400 (20:10)): 0.45 % (w/w); Max solubility ([3]; in PG/PEG-400/GLY (20:10:5)): 0.66 % (w/w); Max solubility ([3]; in PG/PEG-400/GLY/PVP (20:10:5:1)): 0.72 % (w/w); Max solubility ([3]; in PG/PEG-400/GLY/PVP/Water (20:10:5:1:40)): 3.3 % (w/w); Max solubility ([3]; in PG/PEG-400/PVP (20:10:1)): 0.45 % (w/w); Max solubility ([4]; in Propylene glycol): ~0.1**** % (w/w); Max solubility ([4]; in WATER): 3.4**** % (w/w)

With `Brc1c(NC2=NCCN2)ccc2nccnc12` [Brimonidine] as the molecule, how does the “selectivity for alpha2-adrenergic receptors over alpha1-adrenergic receptors” value [5] read?
The value was 1,000 times.
